Results taken from PMC10610545, “Preclinical Evaluation of an Imidazole-Linked Heterocycle for Alzheimer’s Disease” (Pharmaceutics, 2023).

Test system: 5XFAD mice
Experiment: Object location test (OLT) in 5XFAD mice
Type: in vivo, mouse
Conditions: 2 mg/Kg in drinking water, 4 weeks, vs 5XFAD Control
Description: Four-month-old female and male Wt and 5XFAD mice (n = 32) were used to carry out cognitive and molecular analyses. […] The animals had free access to food and water and were kept under standard temperature conditions (22 ± 2 °C) and 12 h/12 h light/dark cycles (300 lx/0 lx). […] After 4 weeks of treatment, cognitive tests, including short- and long-term memory and OLT, were performed to study the effects of treatment on learning and memory. Weight and water consumption were controlled each week, and the LSL33 concentration was adjusted accordingly to reach the optimal dose until euthanasia.
The OLT evaluated the spontaneous tendency of rodents to spend more time exploring a novel object location than a familiar object location and recognizing when an object has been relocated. OLT was performed using a white plywood apparatus (50 × 50 × 25 cm), in which three walls were white and one was black. On the first day, animals were just habituated to the empty open-field arena for 10 min. On the second day, two objects were placed in front of the black wall, equidistant from each other and the wall. The objects were 10 cm high and identical. […] Trials were recorded using a camera mounted above the open field area, and the total exploration time was determined by scoring TN and TO. DI was calculated, defined as (TN−TO)/(TN+TO). […]

Structure (SMILES): Cl.c1ccc2sc(-c3ncc[nH]3)cc2c1 [LSL33, 2-(Benzo[b]thiophene-2-yl)-1H-imidazole hydrochloride]
- OLT discrimination index (DI): increase in the discrimination index (DI)
